Several values for one entry are separate records, joined by “and”; a condition that tells them apart may be missing. Identical values can stand only once.
Experiments:
[1] = incubation concentration of 100 mM; cited from earlier work
[2] = Octanol-water partition coefficients; assay type: physicochemical; conditions: errors show SEM; Gd in each layer by ICP-MS
Procedure: Approximately 1 mg of each compound was dissolved in 1 mL of a 1:1 mixture of water/1-octanol. After shaking the sample tube vigorously for 30 s, the tube was placed on a rotator for gentle mixing over 6 h. The tube was then removed from the rotator and allowed to sit for 12 h to ensure complete separation of the aqueous and organic phases. […] Once separation was complete, 10 μL was removed from each layer to determine the concentration of Gd by ICP-MS. The partition coefficient was calculated from the following equation: log10P=log10(Co/Cw), where log10 P is the logarithm of the partition coefficient, Co is the concentration of Gd in the 1-octanol layer, and Cw is the concentration of Gd in the water layer.

[3] = tested on: HeLa cells; assay: Cellular delivery studies with and without GO co-incubation, HeLa; assay type: cell-based; conditions: for Gd content (fmol/cell): 188 μM Gd(III), 24 h, replicate values
Procedure: ICP-MS Samples were prepared in 15-mL conical tubes by adding ACS reagent grade nitric acid (70%), followed by incubation at 70° C. overnight to allow for complete sample digestion. The effectiveness of this digestion protocol was previously validated for GO. After incubation, a multi-element internal standard (containing Bi, Ho, In, Li, Sc, Tb, and Y, Inorganic Ventures, Christiansburg, Va.) and milli-Q water (18.2 MΩ·cm) were added to produce a final sample of 3% (v/v) nitric acid and 5 ng/mL internal standard.
ICP-MS was performed on a computer-controlled (Plasmalab software) Thermo X series II ICP-MS (Thermo Fisher Scientific, Waltham, Mass., USA) operating in standard mode equipped with an ESI SC-2 autosampler (Omaha, Nebr., USA). Each sample was acquired using 1 survey run (10 sweeps) and 3 main (peak jumping) runs (100 sweeps). The isotopes selected for analysis were Gd with In and Ho isotopes selected as internal standards for data interpolation. Instrument performance is optimized daily through an autotune followed by verification via a performance report (passing manufacturer specifications). Instrument calibration was accomplished by preparing individual-element Gd standards (Inorganic Ventures, Christiansburg, Va., USA) using concentrations of 0.78125, 1.5625, 3.125, 6.25, 12.50, 25.00, 50.00, 100.0, and 200.0 ng/mL containing 3.0% nitric acid (v/v) and 5.0 ng/mL of multi-element internal standard.
Dulbecco's modified phosphate buffered saline (DPBS), media, and dissociation reagents were purchased from Life Technologies (Carlsbad, Calif.). CorningBrand® cell culture consumables (flasks, plates, etc.) and sera were purchased from VWR Scientific (Radnor, Pa.). HeLa cells (ATCC® CCL-2™) and KB cells (ATCC® CCL-17™) were purchased from the American Type Culture Collection (ATCC, Manassas, Va.) and cultured in phenol red-free minimum essential media (MEM) supplemented with 10% fetal bovine serum (FBS). Prior to all experiments, cells were plated and allowed to incubate for 24 hours before dosing. Cells were harvested with 0.25% TrypLE for 5 minutes at 37° C. in a 5.0% CO2 incubator. For sterilization, all Gd(III)-labeled molecules were filtered with 0.2 μm sterile filters prior to concentration determination and storage at 4° C. GO was used as prepared without further sterilization. […] Cells were grown in a humidified incubator operating at 37° C. and 5.0% CO2.
Cell counting was conducted using a Guava EasyCyte Mini Personal Cell Analyzer (EMD Millipore, Billerica, Mass.). After cell harvesting, an aliquot (50 μL) of the cell suspensions was mixed with Guava ViaCount reagent (150 μL) and allowed to stain at room temperature for at least 5 minutes. The dilution factor of 4 was determined based upon optimum machine performance (20-150 cells/μL). After vortexing for 10 sec, stained cells were counted using a Guava EasyCyte Mini Personal Cell Analyzer (PCA) using the ViaCount software module. For each sample, 1000 events were acquired. Gating of live/dead and cell/debris classifications were performed manually by the operator.
Cellular delivery studies were performed with HeLa and KB cells. HeLa and KB were plated at a cell density of approximately 25,000 and 50,000 cells per well, respectively, in a 24-well plate as counted by a hemocytometer. Stock solutions of 1-14 (1 mM), 150 nm GO (100 μg/mL), and 1500 nm GO (100 μg/mL) were prepared using sterile Milli-Q water. Prior to dosing, 80 μL ([…]) of each GO (150 nm and 1500 nm) and 80 μL (80 nmol) of each Gd(III)-labeled molecule (1-14) were mixed and allowed to adsorb for at least 15 minutes. 150 μL Gd(III)-GO solutions were added to 250 μL media to give a final concentration of 188 μM Gd and 18.8 μg/mL GO. Cells were incubated with the mixture of Gd(III)-labeled molecules and GO for […]. To harvest, cells were rinsed in-plate three times with 500 μL PBS and trypsinized using 100 μL 0.25% TrypLE. […]

[4] = +150 nm GO co-incubation, 18.8 μg/mL GO
[5] = +1500 nm GO co-incubation, 18.8 μg/mL GO
[6] = molecule alone, without GO, 24-well plate

Row | Structure (SMILES) | Highest cellular labeling reported to date [1] [fmol Gd/cell] | Water-Octanol LogP [2] | Gd content (fmol/cell) [3, 4] | Gd content (fmol/cell), Outliers ([3]; +150 nm GO, values removed as outliers (Chauvenet's criterion, * experimenter judgment)) [fmol/cell] | Gd content (fmol/cell) [3, 5] | Gd content (fmol/cell) [3, 6]
1 | CC(O)CN1CCN(CC(=O)[O-])CCN(CC(=O)[O-])CCN(CC(=O)[O-])CC1.[Gd+3] (stereo not shown) [Molecule 13, [Gd(HP-DO3A)(H2O)]] | 31 |  |  |  |  | 
2 | C[N+](C)(C)CCCc1cn(CC(O)CN2CCN(CC(=O)[O-])CCN(CC(=O)[O-])CCN(CC(=O)[O-])CC2)nn1.[Gd+3] (stereo not shown) [Molecule 5] |  | −4.33 ± 0.46 | 0.37 fmol/cell and 0.29 fmol/cell and 0.42 fmol/cell and 0.43 fmol/cell | 2.73 | 0.42 fmol/cell and 0.36 fmol/cell and 0.32 fmol/cell | 0.52 fmol/cell and 0.29 fmol/cell and 0.25 fmol/cell and 0.35 fmol/cell and 0.37 fmol/cell
3 | NCCCN1CCN(CC(=O)[O-])CCN(CC(=O)[O-])CCN(CC(=O)[O-])CC1.[Gd+3] [Molecule 8] |  | −3.86 ± 0.01 | 13.40 fmol/cell and 20.22 fmol/cell and 14.84 fmol/cell |  | 7.61 fmol/cell and 7.56 fmol/cell and 6.31 fmol/cell | 0.68 fmol/cell and 1.78 fmol/cell and 1.87 fmol/cell and 1.16 fmol/cell and 0.94 fmol/cell and 1.30 fmol/cell and 1.48 fmol/cell
